Experimental data published in ChEMBL document CHEMBL1125173, “Cannabimimetic activity of novel enantiomeric, benzofuran cannabinoids” (1990).

Key:
Type in all cases: functional
Mus musculus [1] = experiment: Psychotropic Effect evaluated by Mouse Ring Test at a dose of 0.1 mg/kg
Mus musculus [2] = experiment: Psychotropic Effect evaluated by Mouse Ring Test at a dose of 20 mg/kg
Mus musculus [3] = experiment: Psychotropic Effect evaluated by Mouse Ring Test at a dose of 1 mg/kg
Columba livia [4] = experiment: Effective Dose when administered at a dose of 0.78 mg/kg in pigeons; details: in Columbidae
Mus musculus [5] = experiment: Psychotropic Effect evaluated by Mouse Ring Test at a dose of 10 mg/kg
Rattus norvegicus [6] = experiment: Effective Dose when administered at a dose of 0.94 mg/kg in rats
Columba livia [7] = experiment: Effective Dose when administered in pigeons; details: in Columbidae
Columba livia [8] = experiment: Effective Dose when administered at a dose of 0.99 mg/kg in pigeons; details: in Columbidae
Rattus norvegicus [9] = experiment: Effective Dose when administered at a dose of 0.98 mg/kg in rats

SMILES | Psychotropic Effect (Mus musculus [1]) | Psychotropic Effect (Mus musculus [2]) | Psychotropic Effect (Mus musculus [3]) | ED50 (Columba livia [4]) [mg/kg] | Psychotropic Effect (Mus musculus [5]) | ED50 (Rattus norvegicus [6]) [mg/kg] | ED50 (Columba livia [7]) [mg/kg] | ED50 (Columba livia [8]) [mg/kg] | ED50 (Rattus norvegicus [9]) [mg/kg]
C=C1[C@H]2Oc3cc(C(C)(C)CCCCCC)cc(O)c3[C@H]2[C@H]2C[C@@H]1C2(C)C | 10 | 43.2 | 20 | 3.57 | 28.1 | – | – | – | –
CCCCCc1cc(O)c2c(c1)OC(C)(C)[C@@H]1CCC(C)=C[C@@H]21 [DRONABINOL] | – | – | – | – | – | 0.66 | 0.18 | – | –
CCCCCc1cc(O)c2c(c1)OC(C)(C)[C@@H]1CC=C(C)C[C@@H]21 [DELTA-8-TETRAHYDROCANNABINOL] | 13.2 | – | 20.9 | – | 41.3 | – | – | – | –
C=C1[C@H]2Oc3cc(C(C)(C)CCCCCC)cc(O)c3[C@H]2[C@@H]2C[C@H]1C2(C)C | 13.2 | 89.2 | 42 | – | 66.1 | – | – | 0.17 | 0.72
